Data reported in paper PMC7559477, “Zinc Binding by Histatin 5 Promotes Fungicidal Membrane Disruption in C. albicans and C. glabrata” (Journal of Fungi, 2020).
Where no end group is shown, it is not given here.

Experiments:
[1] = system: Candida glabrata strain Cg931010; format: cell-based; conditions: strain Cg931010, 18 h
Method: (§1) Experiments were carried out with Candida albicans strain SC5314 [41] or Candida glabrata strain Cg931010 [42]. Liquid and solid pre-mixed yeast-peptone-dextrose media was used to grow yeast cells (YPD and YPD-Agar, respectively) (Fisher Scientific, Waltham, MA, USA). All media was prepared in deionized water with 50 µg/ mL supplemented uridine (Sigma Aldrich, St. Louis, MO, USA), and sterilized by autoclave. Metal salt solutions of ZnSO4·7H2O (Fisher Scientific, Waltham, MA, USA) were made in High-performance liquid chromatography (HPLC)-grade water (JT Baker, Phillipsburg, NJ, USA) and used within one day of preparation. […]
(§2) Cells (C. albicans or C. glabrata) were cultured as previously described. […] Significance of differences in killing between Zn^2+ and Zn^2+-free samples were calculated using one-way ANOVA with Sidak’s multiple comparisons test.
Figure 6 Zinc greatly increases Hst 5 and P113 killing of C. glabrata, and induces almost immediate ATP efflux. […] Cells were removed from samples via centrifugation and aliquots of supernatant were taken at 1 and 10 min time points to measure extracellular ATP by luminescence. […] Significance of differences in killing and ATP efflux were calculated using one way ANOVA with Sidak’s multiple comparison test. * indicates p ≤ 0.05, **** indicates p ≤ 0.0001

[2] = system: Candida albicans strain SC5314; experiment: Candidacidal assay, C. albicans; format: cell-based; conditions: 0.44 fmol/cell, 1 Zn2+ to 2 peptides, 1 h at 30 °C, 10 mM NaPB pH 7.4; words = versus peptide alone
Method: as §1, §2
(A) Candidacidal assays of C. albicans SC5314 cells with 1 h incubation at 30 °C of Hst 5 (red), Hst 5ΔMB (blue), and P113 (green) at dosages of 0.44, 3.75, 7.5, 15, and 30 fmol/cell in 10 mM sodium phosphate buffer pH 7.4. […] Significance of differences in killing activity were calculated using one way ANOVA with Sidak’s multiple comparisons test. * indicates p ≤ 0.05, ** indicates p ≤ 0.01, **** indicates p ≤ 0.0001.

[3] = system: Candida glabrata (Cg931010); experiment: Extracellular ATP quantification (ATP efflux), C. glabrata; format: cell-based; conditions: 0.88 fmol/cell
Method: Candida albicans (SC5314) or Candida glabrata (Cg931010) cells were prepared as for peptide uptake assays, with the exception that cells were added to samples at a dosage of 0.88 fmol peptide/cell in a 1:2 ratio of ZnSO4:peptide. After samples were mixed, each was immediately centrifuged for 2 min at 6000× g at room temperature, after which 10 µL supernatant was removed to new tubes and added to 84 µL boiling TE buffer (50 mM Tris pH 7.5, 2 mM EDTA pH 8) (1-min time point). Pelleted cells were resuspended with vortexing. After this, samples were incubated at 30 °C (220 rpm) and removed from incubation for a 10-min time point. Samples in TE buffer were boiled for two more minutes and stored on ice for quantitation. Then, 25µL of each sample were added to 10 µL Staybrite adenosine triphosphate (ATP) assay mix and 65 µL assay buffer (Biovision, Milpitas, CA, USA), and luminescence was immediately measured using a FlexStation 3 plate reader (Molecular Devices, San Jose, CA, USA). Experiments were carried out on at least three separate days. Data were interpolated using a standard curve to determine moles of ATP in each sample. Significant differences between Zn^2+ added and Zn^2+-free samples at each time point were determined using one-way ANOVA and Sidak’s multiple comparisons test. […]

[4] = system: Candida albicans (SC5314); experiment: Extracellular ATP quantification (ATP efflux), C. albicans; format: cell-based; conditions: 0.88 fmol/cell; for ATP efflux with added Zn2+: 1:2 ZnSO4:peptide, 10 mM NaPB pH 7.4, words = versus peptide alone; for total ATP efflux: peptide alone, 10 mM NaPB pH 7.4, luminescence
Method: Candida albicans (SC5314) or Candida glabrata (Cg931010) cells were prepared as for peptide uptake assays, with the exception that cells were added to samples at a dosage of 0.88 fmol peptide/cell in a 1:2 ratio of ZnSO4:peptide. After samples were mixed, each was immediately centrifuged for 2 min at 6000× g at room temperature, after which 10 µL supernatant was removed to new tubes and added to 84 µL boiling TE buffer (50 mM Tris pH 7.5, 2 mM EDTA pH 8) (1-min time point). Pelleted cells were resuspended with vortexing. After this, samples were incubated at 30 °C (220 rpm) and removed from incubation for a 10-min time point. Samples in TE buffer were boiled for two more minutes and stored on ice for quantitation. Then, 25µL of each sample were added to 10 µL Staybrite adenosine triphosphate (ATP) assay mix and 65 µL assay buffer (Biovision, Milpitas, CA, USA), and luminescence was immediately measured using a FlexStation 3 plate reader (Molecular Devices, San Jose, CA, USA). Experiments were carried out on at least three separate days. Data were interpolated using a standard curve to determine moles of ATP in each sample. Significant differences between Zn^2+ added and Zn^2+-free samples at each time point were determined using one-way ANOVA and Sidak’s multiple comparisons test.
Figure 5 Zinc induces almost immediate ATP efflux. C. albicans SC5314 bioluminescent ATP efflux assay. Cells were treated at 30 °C with 0.88 fmol/ cell. Hst 5 (red), Hst 5ΔMB (blue), or P113 (green) in 10 mM sodium phosphate buffer pH 7.4 with or without added Zn^2+ at a one to two peptides ratio (hatched). Cells were removed from samples via centrifugation and aliquots of supernatant were taken at 1 min and 10 min time points to measure extracellular ATP by luminescence. Experiments were repeated on at least three separate days and averaged. Significance of differences in ATP efflux calculated using one way ANOVA with Sidak’s multiple comparison test. ** indicates p ≤ 0.01, *** indicates p ≤ 0.001.

[5] = Peptide solubility assay (Zn2+-induced precipitation from NaPB); format: physicochemical; conditions: 15 µM peptide in 10 mM NaPB pH 7.4, 30 min at room temperature (20 °C), centrifuged 20000 x g 10 min, supernatant by NanoDrop A205, triplicate, averaged
Method: Aggregation was quantified by measuring peptide precipitation from NaPB. Molar ratios of [0:0], [0:1], [1:2], [1:1], [2:1], [3:1], and [4:1] ZnSO4 to 15 µM peptide were used and samples were incubated for 30 min at room temperature (20 °C) before centrifugation. Samples were spun at 20000× g for 10 min at room temperature and the protein concentrations of the supernatants were subsequently measured using microvolume spectrophotometry (NanoDrop One, Thermofisher Scientific, Waltham, MA, USA) Data were cleaned using robust regression and outlier removal (ROUT) with Q set to 1%. Cleaned data were baseline corrected by subtracting peptide- and metal- free NaPB (0:0). […] Percent aggregation out of total peptide added was calculated. […] Statistical differences between the peptides at each metal salt titration were calculated using two-way ANOVA with Tukey’s multiple comparison test.
Figure 2 The three Hsts are all soluble at a physiological ratio of Zn^2+ to peptide but differ in relative Zn^2+ affinity. […] Peptide solubility was measured via NanoDrop A205 after removal of insoluble aggregates by centrifugation. […] Absorbance of Zincon at 621 nm was measured as an inverse indicator of relative peptide affinity, as Zincon has a blue color when bound to zinc. […]

C. albicans cells = experiment: Peptide uptake (cell association) assay; format: cell-based, Candida albicans; conditions: 0.44 fmol/cell, 30 °C, up to 20 min, initial binding subtracted
Method: as §1
C. albicans cells were added to pre-incubated peptides (30 min, 20 °C) alone or at a 1 Zn^2+:2 peptide ratio, and additionally to Hst 5 at a 3 Zn^2+:2 peptide ratio, using a dose of 0.44 fmol peptide/cell. After cells were added, samples were vortexed briefly and immediately centrifuged for 2 min at 6000× g at 20 °C, after which 10 µL supernatant was removed to new tubes and stored at 4 °C for quantification. […] Protein concentration in supernatant samples was measured by NanoDrop. […] Significance of differences in uptake rate and binding between zinc added and zinc free samples were calculated using two-way ANOVA with Sidak’s multiple comparisons test. […]

[6] = Zinc-binding competition assay with Zincon; conditions: competition with Zincon 1:1, 20 µM peptide, 10 mM NaPB pH 7.4, ZnSO4 titration, absorbance at 621 nm; triplicate, averaged
Method: Binding competition assays were carried out utilizing the colorimetric copper and Zn^2+ binding dye Zincon. Peptides (20 µM) were mixed with Zincon at a 1:1 ratio and titrated with increasing equivalents of ZnSO4. Absorbance at 621 nm was measured at each addition of metal salt using a Lambda 25 UV/Vis spectrophotometer (Perkin Elmer, Waltham, MA, USA). Data were curve fit using a one site competition equation.
Figure 2 The three Hsts are all soluble at a physiological ratio of Zn^2+ to peptide but differ in relative Zn^2+ affinity. (A) Percent solubility of 15 µM Hst 5 (red), Hst 5ΔMB (blue), and P113 (green) in 10 mM sodium phosphate buffer pH 7.4 with increasing ratio of Zn^2+ incubated at room temperature for 30 min. Peptide solubility was measured via NanoDrop A205 after removal of insoluble aggregates by centrifugation. (B) Binding competition assay with Zincon and peptides at 20 µM in 10 mM sodium phosphate buffer pH 7.4 to establish relative affinity of Hst 5 (red), Hst 5ΔMB (blue), and P113 (green) for Zn^2+ at increasing molar ratios. Absorbance of Zincon at 621 nm was measured as an inverse indicator of relative peptide affinity, as Zincon has a blue color when bound to zinc. Experiments were performed in triplicate and averaged.

| Compound | killing less than in C. albicans under the same conditions [1] | killing with added Zn2+ [2] | ATP efflux total ([3]; 1 min, peptide alone, 10 mM NaPB pH 7.4, luminescence) | ATP efflux with added Zn2+ ([3]; 10 min, 1:2 Zn2+:peptide, 10 mM NaPB pH 7.4, words = versus 1 min) | ATP efflux with added Zn2+ ([4]; 1 min) | total ATP efflux ([4]; 1 min, at least three days, averaged) | ATP efflux with added Zn2+ ([4]; 10 min at 30 °C) | total ATP efflux ([4]; 10 min at 30 °C) | precipitation of peptide ([5]; 1:1 Zn2+:peptide) | precipitation of peptide ([5]; 4:1 Zn2+:peptide) | total uptake with added Zn2+ (C. albicans cells; 1 Zn2+:2 peptide, 10 mM NaPB pH 7.4, words = versus peptide alone) | total uptake (C. albicans cells; peptide alone, 10 mM NaPB pH 7.4, supernatant by NanoDrop, at least three days, averaged) | relative affinity for Zn2+ [6] |
| --- | --- | --- | --- | --- | --- | --- | --- | --- | --- | --- | --- | --- | --- |
| C[C@H](NC(=O)[C@H](Cc1c[nH]cn1)NC(=O)[C@H](CO)NC(=O)[C@@H](N)CC(=O)O)C(=O)N[C@@H](CCCCN)C(=O)N[C@@H](CCCNC(=N)N)C(=O)N[C@@H](Cc1c[nH]cn1)C(=O)N[C@@H](Cc1c[nH]cn1)C(=O)NCC(=O)N[C@@H](Cc1ccc(O)cc1)C(=O)N[C@@H](CCCCN)C(=O)N[C@@H](CCCNC(=N)N)C(=O)N[C@@H](CCCCN)C(=O)N[C@@H](Cc1ccccc1)C(=O)N[C@@H](Cc1c[nH]cn1)C(=O)N[C@@H](CCC(=O)O)C(=O)N[C@@H](CCCCN)C(=O)N[C@@H](Cc1c[nH]cn1)C(=O)N[C@@H](Cc1c[nH]cn1)C(=O)N[C@@H](CO)C(=O)N[C@@H](Cc1c[nH]cn1)C(=O)N[C@@H](CCCNC(=N)N)C(=O)NCC(=O)N[C@@H](Cc1ccc(O)cc1)C(=O)O [Hst 5, Histatin 5] | 40% | – | – | – | – | – | – | – | – | – | – | – | – |
| QQQAKRHHGYKRKFQQQQQSHRGY [Hst 5ΔMB] | – | did not significantly alter | ≤ 30 pmol | over 100 pmol | did not significantly increase | 85 pmol | did not significantly increase | 257 pmol | 14% | 25% | 90 pmol | 370 pmol | lowest affinity |
